Assay type in all cases: functional
Assay [1] deals with Mus musculus. Nature of the assay: Antihyperglycemic activity in C57BL-6J ob/ob mouse type 2 diabetic model assessed as food intake per mouse at 1000 mg/kg, po administered as single dose.
For assay [2], the system named is Mus musculus. Nature of the assay: Antihyperglycemic activity in C57BL-6J ob/ob mouse type 2 diabetic model assessed as changes in plasma glucose level at 1000 mg/kg, po administered as single dose for 24 hrs.
Assay [3] relates to Mus musculus. Nature of the assay: Antihyperglycemic activity in C57BL-6J ob/ob mouse type 2 diabetic model assessed as changes in plasma glucose level at 1000 mg/kg, po administered as single dose for 3 hrs.
Assay [4] has as its system Mus musculus. Description: Antihyperglycemic activity in C57BL-6J ob/ob mouse type 2 diabetic model assessed as changes in plasma glucose level at 1.09 mmol/kg, po administered as single dose for 24 hrs.
The subject of assay [5] is Mus musculus. Nature of the assay: Antihyperglycemic activity in C57BL-6J ob/ob mouse type 2 diabetic model assessed as food intake per mouse at 1.09 mmol/kg, po administered as single dose.
Assay [6] has as its system Mus musculus. Description: Antihyperglycemic activity in C57BL-6J ob/ob mouse type 2 diabetic model assessed as body weight per mouse at 1.09 mmol/kg, po administered as single dose for 24 hrs.
Assay [7] concerns Mus musculus. Description: Antihyperglycemic activity in C57BL-6J ob/ob mouse type 2 diabetic model assessed as changes in plasma glucose level at 1.09 mmol/kg, po administered as single dose for 3 hrs.
In assay [8] the test system is Mus musculus. Description: Antihyperglycemic activity in C57BL-6J ob/ob mouse type 2 diabetic model assessed as body weight per mouse at 1000 mg/kg, po administered as single dose for 24 hrs.
Assay [9] concerns Mus musculus. Nature of the assay: Antihyperglycemic activity in C57BL-6J ob/ob mouse type 2 diabetic model assessed as changes in plasma glucose level at 1.5 mmol/kg, po administered as single dose for 24 hrs.
The subject of assay [10] is Mus musculus. Nature of the assay: Antihyperglycemic activity in C57BL-6J ob/ob mouse type 2 diabetic model assessed as changes in plasma glucose level at 1.5 mmol/kg, po administered as single dose for 3 hrs.
Assay [11] concerns Mus musculus. Nature of the assay: Antihyperglycemic activity in C57BL-6J ob/ob mouse type 2 diabetic model assessed as body weight per mouse at 1.5 mmol/kg, po administered as single dose for 24 hrs.
Assay [12] has as its system Mus musculus. Description: Antihyperglycemic activity in C57BL-6J ob/ob mouse type 2 diabetic model assessed as food intake per mouse at 1.5 mmol/kg, po administered as single dose.

As to `Cc1coc2c(O)c3c(c(C)c12)[C@@H](C)CCC3` [CACALOL], the Activity in the assay with Mus musculus [1] is 4.6 g; in the assay on Mus musculus [2], -13.4 mg/dL; in the assay on Mus musculus [3] it was -105.1 mg/dL; with Mus musculus [4], 48.3 mg/dL; with Mus musculus [5] it was 4.1 g; in the assay with Mus musculus [6], 43.5 g. Moreover, the Activity in the assay with Mus musculus [7] is -124 mg/dL; with Mus musculus [8] it was 45 g.
On to `Cc1coc2c1[C@](C)(O)C1=C(CCC[C@@H]1C)C2=O` [CACALONE], for which the Activity in the assay on Mus musculus [1] is 4.6 g; with Mus musculus [2] it was -13.4 mg/dL; with Mus musculus [3], -105.1 mg/dL; in the assay with Mus musculus [4], 29.5 mg/dL; in the assay with Mus musculus [5], 4.8 g; in the assay on Mus musculus [6], 41.4 g. For the same compound, the Activity with Mus musculus [7] is -3 mg/dL; in the assay on Mus musculus [8] it was 45 g.
As for `Cc1coc2c1[C@@](C)(O)C1=C(CCC[C@@H]1C)C2=O` [EPICACALONE], the Activity was 4.6 g in the assay with Mus musculus [1]; -13.4 mg/dL with Mus musculus [2]; -105.1 mg/dL with Mus musculus [3]; 30.9 mg/dL in the assay on Mus musculus [4]; 4 g in the assay with Mus musculus [5]; 43.3 g in the assay on Mus musculus [6]. The Activity with Mus musculus [7] was -42.4 mg/dL; in the assay on Mus musculus [8], 45 g.
In the case of `CN(C)C(=N)NC(=N)N` [METFORMIN], the Activity with Mus musculus [9] was 76.1 mg/dL; in the assay on Mus musculus [10], -151.8 mg/dL; with Mus musculus [11], 43.2 g; with Mus musculus [12], 4.5 g.

Source of the values: ChEMBL document CHEMBL1144080, “Antihyperglycemic sesquiterpenes from Psacalium decompositum” (1999).
